TD50 data for three compounds are collected here from PubChem BioAssay AID1745844 (Carcinogenic Potency Database (CPDB), 2022).

This series relates to rodent lifetime carcinogenesis bioassay, tumor incidence TD50. Put plainly: chronic cancer bioassays in animals – CPDB, compiled studies (AID 1745844).

Active and inactive are the calls of the source. No rule for the calls is given here.

In the case of `CCCN(CCC)S(=O)(=O)c1ccc(C(=O)O)cc1`, the TD50 was 498 mg/kg/day (mouse, strain B6C3F1, females, by gavage, site: any site (literature study), lesion: several types, types named in the paper, dosed 103 weeks, study length 104 weeks); 540 mg/kg/day (mouse, strain B6C3F1, females, by gavage, site: liver, lesion: hepatocellular adenoma + hepatocellular carcinoma + neoplastic nodule, dosed 103 weeks, study length 104 weeks); 540 mg/kg/day (mouse, strain B6C3F1, females, by gavage, site: liver, lesion: hepatocellular adenoma + hepatocellular carcinoma, dosed 103 weeks, study length 104 weeks); 561 mg/kg/day (mouse, strain B6C3F1, females, by gavage, site: liver, lesion: hepatocellular adenoma, dosed 103 weeks, study length 104 weeks); 1980 mg/kg/day (mouse, strain B6C3F1, females, by gavage, site: lung, lesion: alveolar/bronchiolar adenoma + alveolar/bronchiolar carcinoma, dosed 103 weeks, study length 104 weeks); 276 mg/kg/day (mouse, strain B6C3F1, males, by gavage, site: any site (literature study), lesion: several types, types named in the paper, dosed 103 weeks, study length 104 weeks). For the same compound, the TD50 by setting is: (mouse, strain B6C3F1, males, by gavage, site: liver, lesion: hepatocellular adenoma + hepatocellular carcinoma + neoplastic nodule, dosed 103 weeks, study length 104 weeks) 731 mg/kg/day; (mouse, strain B6C3F1, males, by gavage, site: lung, lesion: alveolar/bronchiolar adenoma + alveolar/bronchiolar carcinoma, dosed 103 weeks, study length 104 weeks) 2320 mg/kg/day; (mouse, strain B6C3F1, males, by gavage, site: subcutaneous tissue, lesion: fibroma, dosed 103 weeks, study length 104 weeks) 2130 mg/kg/day (inactive); (rat, strain Fischer 344, females, by gavage, site: any site (literature study), lesion: several types, types named in the paper, dosed 103 weeks, study length 104 weeks) 1540 mg/kg/day (inactive); (rat, strain Fischer 344, females, by gavage, site: liver, lesion: hepatocellular adenoma + hepatocellular carcinoma + neoplastic nodule, dosed 103 weeks, study length 104 weeks) 1790 mg/kg/day; (rat, strain Fischer 344, males, by gavage, site: any site (literature study), lesion: several types, types named in the paper, dosed 103 weeks, study length 104 weeks) 296 mg/kg/day. In addition, the TD50 (rat, strain Fischer 344, males, by gavage, site: testis, lesion: interstitial-cell adenoma, bilateral + interstitial-cell adenoma, dosed 103 weeks, study length 104 weeks) was 212 mg/kg/day (inactive).
For the setting “mouse, strain C3H (MTV+), females, in feed, site: mammary gland, lesion: adenocarcinoma, dosed 104 weeks, study length 104 weeks”, `C=C1CC[C@H](O)C/C1=C/C=C1\CCC[C@]2(C)[C@@H]([C@H](C)/C=C/[C@H](C)C(C)C)CC[C@@H]12` gave a TD50 of 39.6 mg/kg/day.
`Cn1c(N)nc2c3cccnc3ccc21`: the TD50 reads like this: (monkey, strain Cynomolgus [Macaca fascicularis], both sexes, by gavage, site: any site (literature study), lesion: malignant tumor, dosed 485 weeks, study length 485 weeks) 0.374 mg/kg/day; (monkey, strain Cynomolgus [Macaca fascicularis], both sexes, by gavage, site: liver, lesion: hepatocellular carcinoma, dosed 485 weeks, study length 485 weeks) 0.374 mg/kg/day; (mouse, strain CDF1, females, in feed, site: forestomach, lesion: several types, types named in the paper, dosed 96 weeks, study length 96 weeks) 62.4 mg/kg/day; (mouse, strain CDF1, females, in feed, site: liver, lesion: hepatocellular carcinoma, dosed 96 weeks, study length 96 weeks) 24.1 mg/kg/day; (mouse, strain CDF1, females, in feed, site: liver, lesion: several types, types named in the paper, dosed 96 weeks, study length 96 weeks) 17.5 mg/kg/day; (mouse, strain CDF1, females, in feed, site: lung, lesion: several types, types named in the paper, dosed 96 weeks, study length 96 weeks) 67.9 mg/kg/day. The TD50 was 42.3 mg/kg/day (mouse, strain CDF1, males, in feed, site: forestomach, lesion: several types, types named in the paper, dosed 96 weeks, study length 96 weeks); 153 mg/kg/day (mouse, strain CDF1, males, in feed, site: forestomach, lesion: squamous-cell carcinoma, dosed 96 weeks, study length 96 weeks); 91.6 mg/kg/day (mouse, strain CDF1, males, in feed, site: liver, lesion: hepatocellular carcinoma, dosed 96 weeks, study length 96 weeks); 48.6 mg/kg/day (mouse, strain CDF1, males, in feed, site: liver, lesion: several types, types named in the paper, dosed 96 weeks, study length 96 weeks); 60.2 mg/kg/day (mouse, strain CDF1, males, in feed, site: lung, lesion: adenocarcinoma, dosed 96 weeks, study length 96 weeks); 22.4 mg/kg/day (mouse, strain CDF1, males, in feed, site: lung, lesion: several types, types named in the paper, dosed 96 weeks, study length 96 weeks). The TD50 runs as follows: (rat, strain F344/DuCrj, females, in feed, site: Zymbal's gland, lesion: squamous-cell carcinoma, dosed 72 weeks, study length 72 weeks) 4.38 mg/kg/day; (rat, strain F344/DuCrj, females, in feed, site: clitoral gland, lesion: squamous-cell carcinoma, dosed 72 weeks, study length 72 weeks) 7.11 mg/kg/day; (rat, strain F344/DuCrj, females, in feed, site: large intestine, lesion: adenocarcinoma, dosed 72 weeks, study length 72 weeks) 19.3 mg/kg/day; (rat, strain F344/DuCrj, females, in feed, site: liver, lesion: hepatocellular carcinoma, dosed 72 weeks, study length 72 weeks) 8.24 mg/kg/day; (rat, strain F344/DuCrj, females, in feed, site: oral cavity, lesion: squamous-cell carcinoma, dosed 72 weeks, study length 72 weeks) 195 mg/kg/day; (rat, strain F344/DuCrj, females, in feed, site: skin, lesion: squamous-cell carcinoma, dosed 72 weeks, study length 72 weeks) 63.2 mg/kg/day. In addition, the TD50 runs as follows: (rat, strain F344/DuCrj, females, in feed, site: small intestine, lesion: adenocarcinoma, dosed 72 weeks, study length 72 weeks) 195 mg/kg/day; (rat, strain F344/DuCrj, males, in feed, site: Zymbal's gland, lesion: squamous-cell carcinoma, dosed 55 weeks, study length 55 weeks) 0.999 mg/kg/day; (rat, strain F344/DuCrj, males, in feed, site: large intestine, lesion: adenocarcinoma, dosed 55 weeks, study length 55 weeks) 2.34 mg/kg/day; (rat, strain F344/DuCrj, males, in feed, site: liver, lesion: hepatocellular carcinoma, dosed 55 weeks, study length 55 weeks) 2.08 mg/kg/day; (rat, strain F344/DuCrj, males, in feed, site: oral cavity, lesion: squamous-cell carcinoma, dosed 55 weeks, study length 55 weeks) 44.8 mg/kg/day; (rat, strain F344/DuCrj, males, in feed, site: skin, lesion: squamous-cell carcinoma, dosed 55 weeks, study length 55 weeks) 4.16 mg/kg/day. Also, the TD50 was 6.45 mg/kg/day (rat, strain F344/DuCrj, males, in feed, site: small intestine, lesion: adenocarcinoma, dosed 55 weeks, study length 55 weeks); 2.26 mg/kg/day (rat, strain Fischer 344, females, in feed, site: Zymbal's gland, lesion: one or several types, types not named, dosed 53 weeks, study length 78 weeks); 5.06 mg/kg/day (rat, strain Fischer 344, females, in feed, site: liver, lesion: hepatocellular carcinoma, dosed 53 weeks, study length 78 weeks); 16.2 mg/kg/day (rat, strain Fischer 344, females, in feed, site: lung, lesion: adenoma, dosed 53 weeks, study length 78 weeks); 3.52 mg/kg/day (rat, strain Fischer 344, females, in feed, site: mammary gland, lesion: one or several types, types not named, dosed 53 weeks, study length 78 weeks); 3.19 mg/kg/day (rat, strain Fischer 344, females, in feed, site: preputial gland, lesion: one or several types, types not named, dosed 53 weeks, study length 78 weeks). The TD50 (rat, strain Fischer 344, females, in feed, site: sebaceous gland, lesion: several types, types named in the paper, dosed 53 weeks, study length 78 weeks) stood at 32.9 mg/kg/day; the TD50 (rat, strain Fischer 344, males, by gavage, site: Zymbal's gland, lesion: squamous-cell carcinoma, dosed 35 weeks, study length 52 weeks) is 0.287 mg/kg/day; the TD50 (rat, strain Fischer 344, males, by gavage, site: any site (literature study), lesion: several types, types named in the paper, dosed 35 weeks, study length 52 weeks) came to 0.287 mg/kg/day; the TD50 (rat, strain Fischer 344, males, by gavage, site: colon, lesion: adenocarcinoma, dosed 35 weeks, study length 52 weeks) was 0.803 mg/kg/day; the TD50 (rat, strain Fischer 344, males, by gavage, site: liver, lesion: hepatocellular carcinoma, dosed 35 weeks, study length 52 weeks) was 0.579 mg/kg/day; the TD50 (rat, strain Fischer 344, males, by gavage, site: skin, lesion: squamous-cell carcinoma, dosed 35 weeks, study length 52 weeks) was 0.579 mg/kg/day. In addition, the TD50 runs as follows: (rat, strain Fischer 344, males, by gavage, site: small intestine, lesion: adenocarcinoma, dosed 35 weeks, study length 52 weeks) 1.55 mg/kg/day; (rat, strain Fischer 344, males, in feed, site: Zymbal's gland, lesion: one or several types, types not named, dosed 53 weeks, study length 63 weeks) 1.2 mg/kg/day; (rat, strain Fischer 344, males, in feed, site: colon, lesion: one or several types, types not named, dosed 53 weeks, study length 63 weeks) 10.5 mg/kg/day; (rat, strain Fischer 344, males, in feed, site: liver, lesion: hepatocellular carcinoma, dosed 53 weeks, study length 63 weeks) 10.5 mg/kg/day; (rat, strain Fischer 344, males, in feed, site: lung, lesion: several types, types named in the paper, dosed 53 weeks, study length 63 weeks) 27.1 mg/kg/day; (rat, strain Fischer 344, males, in feed, site: preputial gland, lesion: one or several types, types not named, dosed 53 weeks, study length 63 weeks) 6.87 mg/kg/day. Further, the TD50 (rat, strain Fischer 344, males, in feed, site: sebaceous gland, lesion: several types, types named in the paper, dosed 53 weeks, study length 63 weeks) is 0.998 mg/kg/day.
